This is an account of results in ChEMBL document CHEMBL4706587 (Eur J Med Chem, 2020).

In series [1] the target is T1, Amine oxidase [flavin-containing] B (Homo sapiens, UniProt P27338).
T1 sequence (P27338 whole entry): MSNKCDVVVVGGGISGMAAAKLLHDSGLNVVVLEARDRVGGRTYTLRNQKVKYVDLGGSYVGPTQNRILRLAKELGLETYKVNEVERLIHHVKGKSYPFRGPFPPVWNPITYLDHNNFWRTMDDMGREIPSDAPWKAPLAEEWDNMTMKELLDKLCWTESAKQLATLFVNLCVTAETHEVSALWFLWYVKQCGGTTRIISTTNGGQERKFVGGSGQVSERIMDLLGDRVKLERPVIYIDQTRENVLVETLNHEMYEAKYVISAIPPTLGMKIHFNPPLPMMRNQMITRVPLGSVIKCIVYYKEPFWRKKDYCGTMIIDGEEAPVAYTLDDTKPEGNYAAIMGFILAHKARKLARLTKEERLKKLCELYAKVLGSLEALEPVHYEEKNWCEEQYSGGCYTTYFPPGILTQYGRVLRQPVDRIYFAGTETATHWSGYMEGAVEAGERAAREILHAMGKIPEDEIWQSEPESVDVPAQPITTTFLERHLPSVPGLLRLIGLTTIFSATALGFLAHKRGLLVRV
Put plainly: Inhibition of recombinant human MAO-B expressed in baculovirus infected BTI insect cells using p-tyramine as substrate preincubated for 30 mins followed by substrate addition and measured after 1 hr by fluorimetric analysis.

Series [2] deals with 5-hydroxytryptamine receptor 2A (Homo sapiens, UniProt P28223). Put plainly: Displacement of [3H]-Ketanserin from human 5HT2A receptor expressed in CHOK1 cells incubated at 27 degree C for 1 hr by microbeta plate reader analysis. The format is cell-based, CHO-K1. Background: Loss of bound radioactivity is the signal in a displacement assay; it reports binding, not function.

A further series deals with beta1 adrenoceptor (Homo sapiens, UniProt P08588). In words: Displacement of [3H](-)CGP 12177 from human recombinant beta1 adrenoceptor at 1 uM after 60 mins by radiometric scintillation analysis relative to control. The note with it: probe [3H](-)CGP 12177.
Series [3] can be described thus: Cmax in Wistar rat at 3 mg/kg, po measured up to 240 mins. Format: ADME, organism-based. Set-up: route oral, dose 3 mg/kg, time <=240. The note with it: in vivo.
In series [4] the target is T2, 5-hydroxytryptamine receptor 1A (Homo sapiens, UniProt P08908).
T2 sequence (P08908 whole entry): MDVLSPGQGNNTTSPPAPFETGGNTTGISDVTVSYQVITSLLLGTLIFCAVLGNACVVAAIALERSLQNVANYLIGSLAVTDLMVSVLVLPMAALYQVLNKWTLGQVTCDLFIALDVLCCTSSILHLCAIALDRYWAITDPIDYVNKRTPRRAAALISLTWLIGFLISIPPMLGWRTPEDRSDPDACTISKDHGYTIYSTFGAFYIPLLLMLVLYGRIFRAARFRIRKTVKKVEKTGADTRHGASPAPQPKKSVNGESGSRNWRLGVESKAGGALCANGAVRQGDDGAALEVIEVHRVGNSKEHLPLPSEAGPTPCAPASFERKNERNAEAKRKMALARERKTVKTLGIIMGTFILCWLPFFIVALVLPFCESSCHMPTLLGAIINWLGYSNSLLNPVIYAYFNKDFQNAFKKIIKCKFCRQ
Put plainly: Displacement of [3H]8-OH-DPAT from human 5HT1A receptor expressed in HEK293 cells incubated at room temperature for 1 hr by microbeta plate reader analysis. The format is cell-based.

In the next series the target is T3, muscarinic M1 receptor (Homo sapiens, UniProt P11229).
T3 sequence (P11229 whole entry): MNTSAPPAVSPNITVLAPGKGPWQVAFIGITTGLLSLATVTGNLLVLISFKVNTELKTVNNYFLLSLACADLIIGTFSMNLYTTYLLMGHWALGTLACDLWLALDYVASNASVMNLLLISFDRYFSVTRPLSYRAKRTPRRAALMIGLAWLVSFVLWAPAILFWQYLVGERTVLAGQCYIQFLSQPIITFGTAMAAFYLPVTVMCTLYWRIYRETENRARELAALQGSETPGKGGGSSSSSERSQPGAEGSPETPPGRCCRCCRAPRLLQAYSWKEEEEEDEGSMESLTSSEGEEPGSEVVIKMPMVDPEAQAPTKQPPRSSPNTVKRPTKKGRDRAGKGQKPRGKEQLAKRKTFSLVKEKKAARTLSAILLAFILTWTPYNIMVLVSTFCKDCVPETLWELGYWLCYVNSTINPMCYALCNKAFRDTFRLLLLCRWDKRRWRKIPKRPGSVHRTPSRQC
Put plainly: Displacement of [3H]pirenzepine from human recombinant muscarinic M1 receptor at 1 uM after 60 mins by radiometric scintillation analysis relative to control. Conditions: probe [3H]pirenzepine.

Another series addresses histamine H1 receptor (Homo sapiens, UniProt P35367). In words: Displacement of [3H]pyrilamine from human recombinant histamine H1 receptor at 1 uM after 60 mins by radiometric scintillation analysis relative to control. Conditions: probe [3H]pyrilamine.
Series [5] has as its target T4, adrenergic alpha1A receptor (Homo sapiens, UniProt P35348).
T4 sequence (P35348 whole entry): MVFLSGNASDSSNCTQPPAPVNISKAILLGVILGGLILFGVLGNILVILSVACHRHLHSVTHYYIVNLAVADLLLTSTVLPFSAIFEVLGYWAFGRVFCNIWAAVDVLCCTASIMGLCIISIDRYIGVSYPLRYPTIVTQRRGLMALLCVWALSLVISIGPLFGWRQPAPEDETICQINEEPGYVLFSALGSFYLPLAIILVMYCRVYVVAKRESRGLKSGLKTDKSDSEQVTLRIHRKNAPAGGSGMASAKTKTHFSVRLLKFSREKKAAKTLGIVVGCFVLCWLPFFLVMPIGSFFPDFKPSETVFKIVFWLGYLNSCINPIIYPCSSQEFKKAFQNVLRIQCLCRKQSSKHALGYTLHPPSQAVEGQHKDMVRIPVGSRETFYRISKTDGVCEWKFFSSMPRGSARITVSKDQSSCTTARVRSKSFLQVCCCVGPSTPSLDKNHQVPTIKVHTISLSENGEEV
Put plainly: Displacement of [3H]-prazosin from human recombinant adrenergic alpha1A receptor at 1 uM incubated for 60 mins by radiometric scintillation analysis relative to control. Conditions: probe [3H]-prazosin.

Series [6] concerns the target T1, Amine oxidase [flavin-containing] B. Conditions: BTI, 1 h, read-out: INH.
Description: Inhibition of recombinant human MAO-B expressed in baculovirus infected BTI insect cells at 1 uM using p-tyramine as substrate preincubated for 30 mins followed by substrate addition and measured after 1 hr by fluorimetric analysis relative to control
The target in a further series is D(2) dopamine receptor (Homo sapiens, UniProt P14416). Put plainly: Displacement of [3H]-raclopride from human D2 receptor expressed in HEK293 cells measured after 1 hr by microbeta plate reader analysis. The format is cell-based.
Series [7] in a line: Effective permeability of compound in PBS at pH 7.4 at 100 uM incubated for 5 hrs by PAMPA-BBB based UPLC-MS analysis. Conditions: read-out: Peff. The format is ADME. For orientation: PAMPA measures passive passage across an artificial lipid membrane.
A short description of series [8]: Half life in Wistar rat at 3 mg/kg, po measured up to 240 mins. The format is ADME, organism-based. The note with it: in vivo.
Series [9] addresses 5-hydroxytryptamine receptor 7 (Homo sapiens, UniProt P34969). Put plainly: Displacement of [3H]-5-CT from human 5HT7 receptor expressed in HEK293 cells measured after 1 hr by microbeta plate reader analysis. The format is cell-based.
A short description of series [10]: Cytotoxicity against mouse C8D1A astrocytes upto 25 uM by LDH assay. Conditions: astrocyte.
A short description of series [11]: Metabolic stability in rat liver microsomes assessed as intrinsic clearance at 10 uM incubated for 10 mins followed by NADPH regeneration system addition and measured after 60 mins by UPLC-MS analysis. Format: ADME, Microsome. The note with it: time 70 min, read-out: CLH.
Series [12] addresses T5, Amine oxidase [flavin-containing] A (Homo sapiens, UniProt P21397).
T5 sequence (P21397 whole entry): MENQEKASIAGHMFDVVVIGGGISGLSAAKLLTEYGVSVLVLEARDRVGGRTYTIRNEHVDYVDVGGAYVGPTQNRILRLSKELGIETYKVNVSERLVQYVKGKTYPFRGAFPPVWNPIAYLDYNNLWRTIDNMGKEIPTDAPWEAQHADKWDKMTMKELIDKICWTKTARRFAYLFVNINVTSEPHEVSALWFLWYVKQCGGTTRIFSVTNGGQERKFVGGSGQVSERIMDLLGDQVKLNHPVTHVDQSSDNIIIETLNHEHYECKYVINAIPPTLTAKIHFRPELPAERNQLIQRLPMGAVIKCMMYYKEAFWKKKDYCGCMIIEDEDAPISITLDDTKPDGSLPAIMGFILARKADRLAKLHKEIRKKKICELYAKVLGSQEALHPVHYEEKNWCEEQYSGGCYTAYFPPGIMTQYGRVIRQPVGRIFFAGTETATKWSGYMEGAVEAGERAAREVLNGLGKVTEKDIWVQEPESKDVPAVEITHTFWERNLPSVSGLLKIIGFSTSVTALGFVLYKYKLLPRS
In words: Inhibition of recombinant human MAO-A expressed in baculovirus infected BTI insect cells using p-tyramine as substrate preincubated for 30 mins followed by substrate addition and measured after 1 hr by fluorimetric analysis.

Series [13] in a line: Tmax in Wistar rat at 3 mg/kg, po measured up to 240 mins. The format is ADME, organism-based. The note with it: in vivo.
A short description of series [14]: Cytotoxicity against mouse C8D1A astrocytes upto 25 uM by MTT assay. The note with it: astrocyte.

5-hydroxytryptamine receptor 2A, sequence (P28223 whole entry): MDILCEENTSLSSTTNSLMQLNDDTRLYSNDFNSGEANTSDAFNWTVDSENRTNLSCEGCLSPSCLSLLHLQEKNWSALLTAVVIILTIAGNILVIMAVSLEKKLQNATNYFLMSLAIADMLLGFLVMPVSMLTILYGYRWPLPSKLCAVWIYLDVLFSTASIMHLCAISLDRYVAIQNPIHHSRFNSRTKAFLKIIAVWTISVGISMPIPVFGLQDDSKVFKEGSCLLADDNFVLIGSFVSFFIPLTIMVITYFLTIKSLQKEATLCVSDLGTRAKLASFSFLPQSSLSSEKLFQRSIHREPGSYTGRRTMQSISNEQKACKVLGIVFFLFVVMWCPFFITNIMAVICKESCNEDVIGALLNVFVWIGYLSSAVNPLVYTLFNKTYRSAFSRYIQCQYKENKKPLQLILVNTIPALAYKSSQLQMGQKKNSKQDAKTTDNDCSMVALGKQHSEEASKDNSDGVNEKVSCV
beta1 adrenoceptor, sequence (P08588 whole entry): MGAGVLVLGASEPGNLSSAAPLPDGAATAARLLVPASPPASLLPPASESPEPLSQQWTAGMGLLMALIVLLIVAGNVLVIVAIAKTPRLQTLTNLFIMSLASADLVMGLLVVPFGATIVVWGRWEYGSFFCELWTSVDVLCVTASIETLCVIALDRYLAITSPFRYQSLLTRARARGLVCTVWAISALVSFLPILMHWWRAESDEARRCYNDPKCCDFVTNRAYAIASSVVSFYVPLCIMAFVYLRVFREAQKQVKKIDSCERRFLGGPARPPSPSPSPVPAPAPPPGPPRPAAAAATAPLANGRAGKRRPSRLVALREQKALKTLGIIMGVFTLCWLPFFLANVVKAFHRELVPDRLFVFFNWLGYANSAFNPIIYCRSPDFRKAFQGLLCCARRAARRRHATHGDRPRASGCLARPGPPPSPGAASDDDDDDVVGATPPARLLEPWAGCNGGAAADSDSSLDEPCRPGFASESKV
5-hydroxytryptamine receptor 7, sequence (P34969 whole entry): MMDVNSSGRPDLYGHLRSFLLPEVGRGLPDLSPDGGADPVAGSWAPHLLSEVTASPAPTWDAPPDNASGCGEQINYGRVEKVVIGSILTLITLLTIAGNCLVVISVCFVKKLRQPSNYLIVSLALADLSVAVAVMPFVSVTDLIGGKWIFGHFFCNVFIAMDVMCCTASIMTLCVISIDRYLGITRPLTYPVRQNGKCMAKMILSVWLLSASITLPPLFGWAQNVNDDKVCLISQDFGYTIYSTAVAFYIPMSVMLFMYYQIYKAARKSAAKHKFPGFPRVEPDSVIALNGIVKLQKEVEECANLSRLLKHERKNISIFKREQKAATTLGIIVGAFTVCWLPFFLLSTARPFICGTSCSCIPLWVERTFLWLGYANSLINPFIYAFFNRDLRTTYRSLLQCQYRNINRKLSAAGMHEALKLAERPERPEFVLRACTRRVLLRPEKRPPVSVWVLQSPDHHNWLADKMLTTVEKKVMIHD
histamine H1 receptor, sequence (P35367 whole entry): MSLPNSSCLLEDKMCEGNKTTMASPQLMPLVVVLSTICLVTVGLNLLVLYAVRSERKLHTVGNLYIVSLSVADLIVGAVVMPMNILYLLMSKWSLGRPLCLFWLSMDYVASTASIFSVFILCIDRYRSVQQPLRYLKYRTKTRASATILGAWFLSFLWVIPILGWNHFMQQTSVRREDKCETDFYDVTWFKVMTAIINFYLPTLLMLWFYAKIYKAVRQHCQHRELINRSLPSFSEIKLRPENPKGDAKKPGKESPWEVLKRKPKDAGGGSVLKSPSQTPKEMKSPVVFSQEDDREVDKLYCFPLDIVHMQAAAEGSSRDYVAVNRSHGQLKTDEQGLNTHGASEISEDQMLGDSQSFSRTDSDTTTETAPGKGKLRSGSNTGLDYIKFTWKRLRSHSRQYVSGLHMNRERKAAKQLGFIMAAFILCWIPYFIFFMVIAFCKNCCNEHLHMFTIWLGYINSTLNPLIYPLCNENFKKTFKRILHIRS
D(2) dopamine receptor, sequence (P14416 whole entry): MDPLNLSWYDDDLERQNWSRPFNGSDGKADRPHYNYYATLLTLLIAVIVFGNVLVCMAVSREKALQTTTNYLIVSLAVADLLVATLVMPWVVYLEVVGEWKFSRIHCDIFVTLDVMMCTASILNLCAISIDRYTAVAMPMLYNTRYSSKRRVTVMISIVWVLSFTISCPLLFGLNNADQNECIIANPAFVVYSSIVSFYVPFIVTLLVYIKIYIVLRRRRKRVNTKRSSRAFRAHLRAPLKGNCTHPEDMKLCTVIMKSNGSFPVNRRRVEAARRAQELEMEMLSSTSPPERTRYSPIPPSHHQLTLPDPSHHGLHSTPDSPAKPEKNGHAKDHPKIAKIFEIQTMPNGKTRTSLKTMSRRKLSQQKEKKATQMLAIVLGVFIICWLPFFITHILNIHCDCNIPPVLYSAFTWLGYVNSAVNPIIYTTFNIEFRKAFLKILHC

`C#CCN(C)Cc1ccc(OCCCCCN2CCN(c3cccc4c3ccn4S(=O)(=O)c3ccccc3)CC2)cc1`: the IC50 was 154 nM in [1] and 1040 nM in series [12]. The Ki in series [2] amounted to 420 nM; in [4] it was 684 nM; on D(2) dopamine receptor, 813 nM; in [9], 8000 nM. Further, the inhibition at 1 h, 1 µM on beta1 adrenoceptor worked out at 5%; at muscarinic M1 receptor it was 4%; on histamine H1 receptor, 13%; in [5], 37%. In series [3], the Cmax was 72.7 ng/mL. In addition, in series [6], the inhibition at 1 µM was 91%. In addition, the Papp at 5 h, 100 µM in series [7] was 4.84 ×10⁻⁶ cm/s. In addition, the half-life in [8] was 28 h. Moreover, the Activity result in [10] and in series [14] was “Non-Toxic” each time. In [11], the CLint scaled at 10 µM was 85 mL/min/kg. The Tmax in series [13] was 0.5 h.

What is called IC50 is the concentration that inhibits the measured activity by half. As a reminder, the Ki is a measure of affinity in units of concentration, obtained from inhibition or displacement. Higher therefore signals lower affinity. As a reminder, the Cmax is the highest concentration seen after dosing. Broadly, the half-life is the time in which the quantity being followed falls by half. Lower therefore signals rapid decline. The Tmax is the time at which the peak concentration occurs.
